Conditions: 333.15 K, Liquid, Vibrating tube method

CCCCCCCCCC [decane]
Conditions | mass density [kg/m3]
24085 kPa | 720.1
24131 kPa | 720.3
24177 kPa | 720.3
24224 kPa | 720.2
24260 kPa | 720.2
24308 kPa | 720.3
24355 kPa | 720.4
24402 kPa | 720.5
24433 kPa | 720.5
24481 kPa | 720.5
24513 kPa | 720.5
24550 kPa | 720.5
24586 kPa | 720.6
24618 kPa | 720.6
24656 kPa | 720.6
24700 kPa | 720.6
24738 kPa | 720.7
24783 kPa | 720.8
24815 kPa | 720.9
24859 kPa | 720.8
24897 kPa | 720.9
24935 kPa | 720.9
24974 kPa | 720.7
25013 kPa | 721
25058 kPa | 720.9
25114 kPa | 721.1
25142 kPa | 721
25177 kPa | 721
25213 kPa | 721.1
25259 kPa | 721.1
25303 kPa | 721.2
26374 kPa | 721.9
26417 kPa | 722
26462 kPa | 722.1
26501 kPa | 722
27273 kPa | 722.7
27328 kPa | 722.6
27371 kPa | 722.6
27419 kPa | 722.6
29838 kPa | 724.5
29868 kPa | 724.5
29913 kPa | 724.5
29948 kPa | 724.6
29988 kPa | 724.7
30720 kPa | 725.2
30760 kPa | 725.2
30787 kPa | 725.3
30831 kPa | 725.2
30857 kPa | 725.2
30898 kPa | 725.3
30924 kPa | 725.4
30960 kPa | 725.2
31000 kPa | 725.3
31027 kPa | 725.4
31059 kPa | 725.4
31090 kPa | 725.4
31122 kPa | 725.4
31148 kPa | 725.4
31190 kPa | 725.5
31218 kPa | 725.5
31259 kPa | 725.6
31295 kPa | 725.5
31332 kPa | 725.6
31592 kPa | 725.8
31630 kPa | 725.8
31667 kPa | 725.7
31731 kPa | 725.9
31793 kPa | 725.9
31821 kPa | 725.9
31859 kPa | 726
31893 kPa | 725.9
31921 kPa | 726.1
31956 kPa | 726
31994 kPa | 726
32038 kPa | 726.1
32086 kPa | 726.1
32125 kPa | 726
32150 kPa | 726.2
32479 kPa | 726.4
32505 kPa | 726.4
32549 kPa | 726.4
32589 kPa | 726.4
32625 kPa | 726.4
32670 kPa | 726.7
32696 kPa | 726.6
32737 kPa | 726.6
32780 kPa | 726.6
32812 kPa | 726.5
32850 kPa | 726.6
32883 kPa | 726.6
32910 kPa | 726.7
32948 kPa | 726.7
32985 kPa | 726.7
33027 kPa | 726.8
33070 kPa | 726.8
33098 kPa | 726.9
33136 kPa | 726.8
33179 kPa | 726.8
33213 kPa | 727
33251 kPa | 726.8
33289 kPa | 726.9
33328 kPa | 726.9
33366 kPa | 727
33404 kPa | 727.1
33434 kPa | 727
33473 kPa | 727
33508 kPa | 727
33553 kPa | 727.1
33593 kPa | 727.3
33633 kPa | 727.1
33660 kPa | 727.2
33693 kPa | 727.3
33721 kPa | 727.3
33748 kPa | 727.3
33772 kPa | 727.2
33796 kPa | 727.3
33816 kPa | 727.4
33851 kPa | 727.3
33876 kPa | 727.5
33907 kPa | 727.3
33943 kPa | 727.5
33976 kPa | 727.5
34008 kPa | 727.4
34037 kPa | 727.5
34062 kPa | 727.6
34091 kPa | 727.5
34116 kPa | 727.6
34150 kPa | 727.6
34176 kPa | 727.6
34219 kPa | 727.7
34246 kPa | 727.7
34288 kPa | 727.7
34326 kPa | 727.7
34351 kPa | 727.7
34386 kPa | 727.8
34412 kPa | 727.8
34437 kPa | 727.7
